Experimental findings from patent US7687079B2, “Methods of treating ileus” (priority 2002, dated 2010) are described below.

One assay deals with TNFα mRNA. The assay is described as follows: TNFα mRNA expression in muscularis externae of intestinal grafts (real time RT-PCR). It is filed as in vivo, rat. To be noted: SITx recipients treated with CO, 4 hours after reperfusion. On the procedure:
The effects of inhalation of CO on transplant-induced pro-inflammatory and anti-inflammatory gene expression was assessed in muscularis extracts by RT-PCR. Muscularis extemae was collected from normal intestine and transplanted grafts 4 hours postoperatively and snap frozen in liquid nitrogen. This time point falls within the range of maximum inflammatory mediator expression that occurs between 3 and 6 hours following abdominal incision. Total RNA extraction was performed using the guanidium-thiocyanate phenol-chloroform extraction method as described previously (Eskandari et al., Am. J. Clin. Pathol. 75(3):367-370 (1997)). RNA pellets were resuspended in RNA-secure resuspension solution (Ambion Inc., Austin, Tex.), followed by removal of potentially contaminating DNA by treatment with DNase I (DNA-Free Kit, Ambion Inc., Austin, Tex.). Equal aliquots (5 μg) of total RNA from each sample were quantified by spectrophotometry (wavelength […]) and aliquoted at a concentration of 40 ng/μl. Peak mRNA expression was quantified in duplicate by SYBR Green two-step, real-time RT-PCR. […] Real-time PCR data were plotted as the ΔRn, fluorescence signal versus the cycle number. […] Quantification of mRNA expression was normalized to GAPDH and calculated relative to control using the comparative CT method (Schmittgen et al., J. Biochem. Biophys. Methods 46(1-2):69-8 (2000)). […]
Background: Real-time PCR tracks product formation cycle by cycle.

The subject of the next assay is serum nitrite/nitrate. The assay can be described thus: serum nitrite/nitrate levels after SITx (Griess reaction). To be noted: SITx + CO vs SITx with air. The assay is classed as in vivo, rat. As for the experimental part:
To monitor the stable end-products of NO metabolism, serum […] levels at 1, 4, and 24 hrs were measured using a commercially available test kit (Cayman, Ann Arbor, Mich.) and quantified according to the manufacturer's directions. In this assay system, nitrate is reduced to nitrite using nitrate reductase, and the nitrite concentration of the sample is subsequently measured using the Griess reaction.
FIG. 6 is a set of bar graphs that illustrate the effect of CO on serum IL-6 and nitrate/nitrite concentrations in animals receiving intestinal grafts at one and four hours after reperfusion. […] Serum IL-6 concentrations were determined using a rat enzyme-linked immunoassay (ELISA) kit (R&D, Cambridge, Mass.). The serum nitrite/nitrate levels, the stable end products of NO metabolism, were measured using a commercially available test kit (Cayman, Ann Arbor, Mich.). In this assay system, nitrate is reduced to nitrite using nitrate reductase, and nitrite concentration of the sample was subsequently measured using the Griess reaction. Serum IL-6 and nitrite/nitrate levels in animals subjected SITx and treated with air increased over time.

Take `[C-]#[O+]` [CO, carbon monoxide]: the TNFα expression entry in the assay on TNFα mRNA is “unchanged”. Also, the serum nitrite/nitrate level entry with serum nitrite/nitrate was “significantly decreased”.
